Molecular target: T1, human S1P1 receptor (Homo sapiens, UniProt P21453)
T1 construct: expressed in transfected cells; membranes used
Assay: GTP γ35S binding assay for S1P1 activity
Assay type: biochemical
Details: Activity potency: S1P1 receptor from GTP γ35S; membranes; test concentration range 0.08 to 5,000 nM
Protocol: Compounds were tested for S1P1 activity using the GTP γ^35S binding assay. These compounds may be assessed for their ability to activate or block activation of the human S1P1 receptor in cells stably expressing the S1P1 receptor.
[…] binding was measured in the medium containing (mM) HEPES 25, pH 7.4, MgCl2 10, NaCl 100, dithitothreitol 0.5, digitonin 0.003%, 0.2 nM GTP γ^35S, and 5 μg membrane protein in a volume of 150 μl. Test compounds were included in the concentration range from 0.08 to 5,000 nM unless indicated otherwise. Membranes were incubated with 100 μM 5′-adenylylimmidodiphosphate for 30 min, and subsequently with 10 μM GDP for 10 min on ice.
Drug solutions and membrane were mixed, and then reactions were initiated by adding GTP γ^35S and continued for 30 min at 25° C. Reaction mixtures were filtered over Whatman GF/B filters under vacuum, and washed three times with 3 mL of ice-cold buffer (HEPES 25, pH7.4, MgCl2 10 and NaCl 100). Filters were dried and mixed with scintillant, and counted for ^35S activity using a β-counter. Agonist-induced GTP γ^35S binding was obtained by subtracting that in the absence of agonist. Binding data were analyzed using a non-linear regression method. In case of antagonist assay, the reaction mixture contained 10 nM S1P in the presence of test antagonist at concentrations ranging from 0.08 to 5000 nM.

T1 sequence (P21453 whole entry): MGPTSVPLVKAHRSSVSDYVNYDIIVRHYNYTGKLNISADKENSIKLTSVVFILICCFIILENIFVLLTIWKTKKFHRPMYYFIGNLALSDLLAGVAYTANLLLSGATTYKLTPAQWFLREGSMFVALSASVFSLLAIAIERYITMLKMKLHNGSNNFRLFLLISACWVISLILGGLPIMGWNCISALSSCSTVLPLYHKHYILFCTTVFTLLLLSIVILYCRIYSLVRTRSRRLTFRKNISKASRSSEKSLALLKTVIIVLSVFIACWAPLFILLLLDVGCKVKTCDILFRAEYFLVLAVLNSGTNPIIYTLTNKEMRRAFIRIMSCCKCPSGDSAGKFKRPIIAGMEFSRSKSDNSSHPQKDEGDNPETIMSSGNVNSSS

EC50 [nM]	SMILES
297	O=C(O)C1CN(Cc2ccc(CC/N=c3\scc(-c4ccccc4)n3-c3ccccc3)cc2)C1 [Compound 1, 1-[4-(2-{[(2Z)-3,4-diphenyl-1,3-thiazol-2(3H)-ylidene]amino}ethyl)benzyl]azetidine-3-carboxylic acid]
5600	O=C(O)C1CN(Cc2ccc(CCSc3ncc(-c4ccccc4)n3-c3ccccc3)cc2)C1 [Compound 2, 1-(4-{2-[(1,5-diphenyl-1H-imidazol-2-yl)thio]ethyl}benzyl)azetidine-3-carboxylic acid]

Source: patent publication US20140235613A1, “SUBSTITUTED DIARYL AZETIDINE DERIVATIVES AS SPHINGOSINE RECEPTOR MODULATORS” (Allergan, Inc., priority 2013, published 2014)
